Literature values in patent publication US10064816B2, “Treatment of sexual dysfunction” (ReJoy, priority 2015, dated 2018).

System: arrector pili muscle
Details: 1% w/v, iontophoresis

CNC[C@H](O)c1cccc(O)c1 [phenylephrine]
piloerection on the forearm: can activate the piloerection
